Data from patent US6043228A, “O^6 -substituted guanine derivatives, a process for their preparation and their use in treating tumor cells” (Cancer Research Campaign Technology Limited, priority 1993, dated 2000).
“And” between values parts separate entries of the source, which are not always exact repeats. Equal values may be shown once. “Also recorded” adds a separate entry of the source.

Tests used:
[1] = biological target: T1, ATase in human melanoma xenografts (Homo sapiens, UniProt P16455); experiment: ATase activity in human melanoma (A375) xenografts grown in nude mice after inactivator; assay type: in vivo; details: with temozolomide 50 mg/kg i.p., three consecutive days, 24 hours after final dose (FIG. 19)
T1 construct: A375M cells are human melanoma cells from which the xenografts described below were established; endogenous in cells; host or cells: A375M xenograft grown in nude mice
T1 sequence (P16455 1-207): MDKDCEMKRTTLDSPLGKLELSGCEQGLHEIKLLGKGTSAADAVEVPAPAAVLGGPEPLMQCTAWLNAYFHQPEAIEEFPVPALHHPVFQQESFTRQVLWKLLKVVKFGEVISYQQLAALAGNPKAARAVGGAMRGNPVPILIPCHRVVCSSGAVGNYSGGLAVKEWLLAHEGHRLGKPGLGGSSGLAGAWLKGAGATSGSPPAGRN

recombinant human ATase = biological target: T2, recombinant human ATase (Homo sapiens, UniProt P16455); experiment: In vitro ATase inactivation assay (incubation with inactivators and ATase assay); assay type: biochemical; details: for ATase inactivation in vitro, result in words: recombinant human ATase, standard conditions
T2 construct: made in house
T2 sequence (P16455 1-207): T1 sequence (P16455 1-207)
Method: The cDNA cloning and overexpression of the human ATase has been reported previously^23. Purification of the recombinant proteins was achieved either by affinity chromatography through a DNA-cellulose column as described by Wilkinson et al.,^25, 26 or by DEAE-cellulose ion-exchange chromatography. For the latter, the ATase protein was partially purified by ammonium sulphate precipitation (30-60%) and dialysed against 10 mM Tris-HCl pH 7.5, 1 mM DTT, 2 mM EDTA, 10% glycerol, before loading on a DEAE-cellulose column. The ATase was then eluted with a 0-0.1 M NaCl gradient.
Compounds to be tested were dissolved in DMSO to a final concentration of 10 mM and diluted just before use in buffer I containing 1 mg/ml bovine serum albumin (IBSA). Recombinant ATase was diluted in IBSA and titrated in order that the reaction be conducted under ATase, and not substrate, limiting conditions. […] Following acid hydrolysis of the DNA as previously described^21 the [^3 H]-methylated protein was recovered and quantitated by liquid scintillation counting. Samples were typically assayed in duplicate and experiments repeated several times. I50 is the concentration of inactivator required to produce a 50% reduction in ATase activity.

Raji cells = experiment: Sensitization of Raji cells to temozolomide (XTT assay); assay type: cell-based, human
Method: Following a 2 hour incubation at 37° C., medium containing either increasing doses of BCNU, temozolomide or equivalent vehicle was added and the cells allowed to grow for 6 days. At this time XTT solution was added and the cells incubated for a further 4 hours at 37° C. The resulting red/orange formazan reaction product was quantified by measuring absorption at 450 nm on a microtitre platereader.

[2] = biological target: T1, ATase in human melanoma xenografts; experiment: ATase activity in human melanoma (A375) xenografts grown in nude mice after inactivator; assay type: in vivo; details: for inactivation of ATase in human melanoma xenografts, in words: single i.p. dose 30 or 60 mg/kg (FIG. 17); for ATase mean activity (fm/mg): Tumour
Method: Cells (10^6) in 100 μl of PBS were injected subcutaneously into the right-hand flank of 8-10 week old nu/nu athymic mice. These cells were allowed to develop into a tumour for 3-4 weeks for passaging into experimental animals. Tumour blocks measuring 2 mm×2 mm×2 mm were implanted subcutaneously on the right hand flank. These animals were ready for use in inactivator experiments in 7-10 days.
(§1) ATase substrate DNA was prepared by incubation of purified calf thymes DNA with N-[^3 H]-methyl-N-nitrosuourea (18.7 Ci/mmole, Amersham International). Cell or tissue extracts (see 4.4) were incubated with [^3 H]-methylated-DNA substrate (100 μl containing 6.7 μg of DNA and 100 fmol of O^6 -[^3 H]methylguanine) at 37° C. for 60 mins. Following acid hydrolysis of the DNA as precviously described^21the [^3 H]-methylated protein was recovered and quantitated by liquid scintillation counting.
Mice were treated with the inactivator as a suspension in corn oil by intraperitoneal injection (i.p.) or by oral gavage (p.o.) 60 mins prior to temozolomide (100 mg/kg in 20% DMSO in phosphate-buffered saline) which was always given by intraperitoneal injection: this schedule was repeated on days 1 to 5 inclusive. Controls received vehicle alone, inactivator alone or temozolomide alone.

ATase = biological target: T3, ATase (Mus musculus, UniProt P26187); experiment: ATase activity in tissues of nude mice after inactivator; assay type: in vivo; details: for inactivation of ATase in mouse tissues, in words: single dose (FIG. 18, Table 10)
T3 construct: Effect of B.4280 on ATase activity in several tissues of nude mice; from tissue; host or cells: liver, lung, kidney, spleen, brain, testis and bone marrow of nu/nu mice
T3 sequence (P26187 1-211): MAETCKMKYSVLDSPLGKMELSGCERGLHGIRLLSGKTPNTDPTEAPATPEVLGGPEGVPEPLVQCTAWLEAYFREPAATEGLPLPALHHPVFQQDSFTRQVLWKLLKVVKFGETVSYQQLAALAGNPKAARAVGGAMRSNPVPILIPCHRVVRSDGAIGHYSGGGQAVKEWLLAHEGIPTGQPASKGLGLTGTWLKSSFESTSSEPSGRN
Method: as §1, with “counting. […]” for “counting.”
The mice in the tests shown in FIGS. 17 and 18 were BALB-C derived athymic male mice (nu/nu athymic) from the in-house breeding colony at the Paterson Institute for Cancer Research as described above (Animal Services Unit-ASU Mice).
Animals were given a single dose of B.4280 (10 mg/kg i.p.) and sacrificed

DBA2 mice = experiment: Toxicity of inactivators in combination with temozolomide in non-tumour-bearing DBA2 mice; assay type: in vivo, mouse; details: 20 mg/kg inactivator + temozolomide 100 mg/kg i.p., four consecutive days (FIG. 25)
Method: FIG. 25 is a graph showing the survival of animals in a comparative test of toxicity of BeG, B.4205 and B.4280 in combination with temozolomide (TZ) in non-tumour-bearing DBA, mice. Animals were given temozolomide alone (100 mg/kg i.p) or BeG (10 or 20 mg/kg i.p.), B.4205 (10 or 20 mg/kg i.p.) or B.4280 (10 or 20 mg/kg i.p.) followed one hour later by temozolomide (100 mg/kg i.p.) on four consecutive days. The vehicles were corn oil for the inactivators and PBS (20% DMSO) for temozolomide.

## Nc1nc(OCc2cccs2)c2nc[nH]c2n1 [B.4205, 0^6 -thenylguanine]
[1]
  ATase inactivation in tumour xenografts, in words: more effective in ATase inactivation in tumour xenografts than either agent alone and 10 mg/kg being ag ettentive as 60 mg/kg
Recombinant human ATase
  ATase inactivation in vitro, result in words: considerably better; also recorded: I50 values lower than that of BeG
Raji cells; 0.1 μM inactivator (FIG. 3)
  sensitising Raji cells to growth inhibitory effects of temozolomide, in words: more effective than BeG
Raji cells; 0.1-5.0 μM inactivator (FIGS. 3, 4)
  dose response of Raji sensitization to temozolomide, in words: lack of dose response
[2]; 30 mg/kg (FIG. 8)
  inactivating ATase in human melanoma xenografts, in words: as effetive as BeG
[2]
  inactivation of ATase in human melanoma xenografts, in words: inactivated
ATase
  inactivation of ATase in mouse tissues, in words: able to inactivate ATase in most mouse tissues examined but there was less inactivation in brain than other tissues
DBA2 mice
  acute toxicity in combination with temozolomide in DBA2 mice, in words: less acutely toxic than BeG

## Nc1nc(OCc2cc(Br)cs2)c2nc[nH]c2n1 [B.4280, O^6-(4-bromothenyl)guanine]
[1]
  ATase inactivation in tumour xenografts, in words: more effective in ATase inactivation in tumour xenografts than either agent alone; also recorded: more effective than B.4205 at equivalent doses
Recombinant human ATase
  IC50: 3.4 nM
  ATase inactivation in vitro, result in words: more efficient in inactivating ATase in vitro than its 5-bromo analogue B.4269; also recorded: more efficient than the unsubstituted thenyl derivative B.4205
Raji cells; 0.5 μM inactivator, 2 hours before temozolomide (FIG. 16)
  sensitization of Raji cells to temozolomide, in words: much more effective than either B.4205 or BeG
[2]; 10 mg/kg i.p. (Table 10)
  recovery of tumour ATase activity, in words: very low at 24 hours but had recovered completely by 48 hours
[2]; 24 h after 10 mg/kg i.p.
  ATase mean activity (fm/mg): 36 ± 7.79 fm/mg
[2]; 48 h after 10 mg/kg i.p.
  ATase mean activity (fm/mg): 140 ± 43.87 fm/mg
[2]
  inactivation of ATase in human melanoma xenografts, in words: inactivated; also recorded: the most effective in vivo inactivator at the doses examined
ATase; Bone Marrow (pooled), 24 h after 10 mg/kg i.p.
  ATase mean activity (fm/mg): 42 fm/mg
ATase; Bone Marrow (pooled), 48 h after 10 mg/kg i.p.
  ATase mean activity (fm/mg): 61 fm/mg
ATase; Brain, 24 h after 10 mg/kg i.p.
  ATase mean activity (fm/mg): 13.7 ± 2.05 fm/mg
ATase; Brain, 48 h after 10 mg/kg i.p.
  ATase mean activity (fm/mg): 16.3 ± 1.25 fm/mg
ATase; Kidney, 24 h after 10 mg/kg i.p.
  ATase mean activity (fm/mg): 24.3 ± 4.03 fm/mg
ATase; Kidney, 48 h after 10 mg/kg i.p.
  ATase mean activity (fm/mg): 28.7 ± 4.11 fm/mg
ATase; Liver, 24 h after 10 mg/kg i.p.
  ATase mean activity (fm/mg): 89.7 ± 10.14 fm/mg
ATase; Liver, 48 h after 10 mg/kg i.p.
  ATase mean activity (fm/mg): 100.7 ± 8.73 fm/mg
ATase; Lung, 24 h after 10 mg/kg i.p.
  ATase mean activity (fm/mg): 15.3 ± 2.05 fm/mg
ATase; Lung, 48 h after 10 mg/kg i.p.
  ATase mean activity (fm/mg): 24 ± 2.83 fm/mg
ATase; Spleen, 24 h after 10 mg/kg i.p.
  ATase mean activity (fm/mg): 41 ± 5.35 fm/mg
ATase; Spleen, 48 h after 10 mg/kg i.p.
  ATase mean activity (fm/mg): 68.3 ± 9.53 fm/mg
ATase; Testis, 24 h after 10 mg/kg i.p.
  ATase mean activity (fm/mg): 45 ± 7.48 fm/mg
ATase; Testis, 48 h after 10 mg/kg i.p.
  ATase mean activity (fm/mg): 44 ± 1.41 fm/mg
ATase
  inactivation of ATase in mouse tissues, in words: able to inactivate ATase in most tissues
DBA2 mice
  acute toxicity in combination with temozolomide in DBA2 mice, in words: less acutely toxic than BeG; also recorded: less acutely toxic than B.4205
